Patent US11904008B2, “Preparation of live vaccines” (priority 2012, dated 2024)
Converted amounts (≈) assume the structure as drawn.

Experiments:
Test in all cases: MIC values of wild type strains
Format in all cases: cell-based
[1] = system: Salmonella enterica subsp. enterica serovar Virchow; conditions: wild type strain Salmonella Virchow; unit assumed
[2] = system: Salmonella enterica subsp. enterica serovar Infantis; conditions: wild type strain Salmonella Infantis; unit assumed
[3] = system: Salmonella enterica subsp. enterica serovar Hadar; conditions: wild type strain Salmonella Hadar; unit assumed
[4] = system: Salmonella paratyphi B (var. L-tartrate+); conditions: wild type strain Salmonella paratyphi B (var. L-tartrate+); unit assumed
Campylobacter coli WS I = conditions: wild type strain Campylobacter coli WS I; unit assumed
Campylobacter coli WS II = conditions: wild type strain Campylobacter coli WS II; unit assumed
[5] = system: Campylobacter jejuni WS I; conditions: wild type strain Campylobacter jejuni WS I; unit assumed
[6] = system: Campylobacter jejuni WS II; conditions: wild type strain Campylobacter jejuni WS II; unit assumed

[H]/N=C(/N)N[C@H]1[C@H](O)[C@@H](O)[C@H](O[C@@H]2O[C@@H](C)[C@](O)(C=O)[C@H]2O[C@@H]2O[C@@H](CO)[C@H](O)[C@@H](O)[C@@H]2NC)[C@@H](N/C(N)=N\[H])[C@@H]1O [Streptomycin]
MIC [1]: 12.5 µg/mL (≈ 21.5 µM) | MIC [2]: 12.5 µg/mL (≈ 21.5 µM) | MIC [3]: 25 µg/mL (≈ 43 µM) | MIC [4]: 30 µg/mL (≈ 51.6 µM) | MIC (Campylobacter coli WS I): 1 µg/mL (≈ 1.72 µM) | MIC (Campylobacter coli WS II): 1 µg/mL (≈ 1.72 µM) | MIC [5]: 2 µg/mL (≈ 3.44 µM) | MIC [6]: 2 µg/mL (≈ 3.44 µM)

C[C@@H]1O[C@@H]1P(=O)(O)O [fosfomycin]
MIC (Campylobacter coli WS I): 25 µg/mL (≈ 181 µM) | MIC (Campylobacter coli WS II): 25 µg/mL (≈ 181 µM) | MIC [5]: 25 µg/mL (≈ 181 µM) | MIC [6]: 25 µg/mL (≈ 181 µM)
